Entries after “also recorded” stand apart in the source; their conditions may differ.
How the values were obtained:
PBM cells = test: Cell death of PBM cells in culture; format: cell-based, mouse; conditions: 2.5 uM for 24 hours
Brca1-null ID8 tumors = test: Subcutaneous Brca1-null ID8 tumors in WT or STING-KO mice; format: in vivo, mouse
Protocol: Single cells were obtained by digestion of primary ovarian tumors in collagenase buffer and then cultured in MOT media (DMEM/F12, 0.6% FBS, 10 ng/ml EGF, hydrocortisone 1 μg/ml, cholera toxin 1 ng/ml, 100 μg/ml penicillin-streptomycin, 5 μM Y27632). Tumor cells were transduced with lentiviral vector encoding luciferase (pLenti-blasticidin-luciferase) and then subjected to 3 days antibiotic selection with blasticidin 2 μg/ml. These luciferased tumors were transplanted orthotopically into syngeneic FVB/NJ mice to generated tumors for drug evaluation. Olaparib (AZD2281) was used by diluting 100 mg/ml stocks in DMSO with 10% 2-hydroxyl-propyl-β-cyclodextrine/PBS and administered daily by i.p. injection at dose of 50 mg/kg body weight. Mouse anti-PD-1 monoclonal antibody kindly provided by Gordon Freeman at DFCI was diluted in PBS (250 μg/100 μl/mouse) and injected by i.p. every 3 days. BX795 (Cat # HY-10514/CS-0259, MedChem Express) was prepared in DMSO (100 mg/ml) as stock solution and diluted in (25% PEG400+0.5% Tween)/PBS and administered daily by i.p. injection at dose of 30 mg/kg body weight. Anti-IFNAR1 antibody (Cat # BE0241; clone, MAR1-5A3; InVivoMab) was diluted in PBS (200 μg/100 μl/mouse) and injected by i.p. every 3 days. Tumor-bearing mice were equivalently divided into control and treatment groups according to the luminescent intensity. The endpoints were determined by tumor burden and ascites. For the CD8 depletion experiment, mice were injected intraperitoneally with anti-CD8 antibody (400 μg; clone YTS 169.4, BioXcell) 24 and 48 h before beginning olaparib treatment (50 mg/kg/day) and every 4 days thereafter.
Brca-1 deficient ID8 cells were generated using a CRISPR double nickase plasmid. […] Due to a lack of a reliable mouse BRCA1 antibody for Western blot, cells were analyzed by DNA sequencing to confirm the disruption of functional Brca1 allele. […]

[1] = system: STING pathway in BMDCs co-cultured with ID8 cells; test: Co-culture of BMDCs with drug-treated WT or Brca1-null ID8 cells; format: cell-based, mouse; conditions: co-cultured with drug-treated Brca1-null ID8 cells
Protocol: Brca-1 deficient ID8 cells were generated using a CRISPR double nickase plasmid. ID8 cells cultured in a 6-well plate were transfected with 2 μg/well of BRCA1 double nickase plasmid (sc419362-NIC, Santa Cruz Biotechnology) or control double nickase plasmid (SC-437281, Santa Cruz Biotechnology) using lipofectamine 3000 (Invitrogen). 48 hrs post-transfection, cells were passaged onto a 10 cm plate. After 24 h, puromycin (3 μg/mL) was added to the culture for selection. Puromycin resistant cells were selected and expanded. Due to a lack of a reliable mouse BRCA1 antibody for Western blot, cells were analyzed by DNA sequencing to confirm the disruption of functional Brca1 allele. To generate ID8 tumors, cultured ID8 cells were harvested and resuspended in serum free DMEM. Cells were then mixed with Matrigel (Corning). A total volume of 0.1 ml containing 5×10^6 ID8 cells and 40% Matrigel were injected subcutaneously into the flank of C57BL/6J mice.
Bone marrow cells were isolated from FVB/NJ mice and cultured in RPMI-1640 containing 10% FBS and 20 ng/ml GM-CSF. BMDCs (bone marrow derived dendritic cells) were harvested for in vitro co-culture assay on day 7 to day 10. About 3×10^5 PBM or PPM tumor cells were cultured in a 6-well plate for 24 hr. and then treated with DMSO or olaparib. […]

O=C(c1cc(Cc2n[nH]c(=O)c3ccccc23)ccc1F)N1CCN(C(=O)C2CC2)CC1 [olaparib, Olaparib]
cell death in PBM cells (PBM cells): did not induce substantial cell death | tumor growth (tumor weights) (Brca1-null ID8 tumors; STING-KO hosts): little effect | abundance of intratumoral p-TBK1+ DCs (Brca1-null ID8 tumors; WT host): increased abundance | tumor growth (tumor weights) (Brca1-null ID8 tumors; WT mice): significantly inhibited the tumor growth | p-TBK1+p-IRF3+ and IFN-β (STING pathway activation) in wild-type BMDCs [1]: Increased; also recorded: activation of STING pathway occurred

Source: patent US20200268864A1, “CANCER VACCINE COMPOSITIONS AND METHODS FOR USING SAME TO TREAT CANCER” (Dana-Farber Cancer Institute, Inc., priority 2017, published 2020)
